From ChEMBL document CHEMBL4433208, “N-Nitrosulfonamides as Carbonic Anhydrase Inhibitors: A Promising Chemotype for Targeting Chagas Disease and Leishmaniasis” (ACS Med Chem Lett, 2019)
Converted amounts (≈) assume the structure as drawn.

Legend:
Leishmania infantum [1] = experiment: microbe, parasite or virus in culture; format: functional, organism-based; settings: MHOM/BR/1974/PP75, 48 h
Description: Antileishmanial activity against Leishmania infantum MHOM/BR/1974/PP75 promastigotes assessed as reduction in parasite viability after 48 hrs by resazurin dye based assay

Leishmania amazonensis [2] = experiment: microbe, parasite or virus in culture; format: functional; settings: IFLA/BR/1967/PH8, 48 h
Description: Antileishmanial activity against Leishmania amazonensis IFLA/BR/1967/PH8 promastigotes after 48 hrs by resazurin dye based assay

in vitro [3] = settings: mouse, RAW264.7 cells
Description: Cytotoxicity against mouse RAW264.7 cells assessed as reduction in cell viability after 48 hrs by MTT assay

Leishmania infantum [4] = experiment: microbe, parasite or virus in culture; format: functional; settings: MHOM/BR/1974/PP75, 48 h
Description: Antileishmanial activity against Leishmania infantum MHOM/BR/1974/PP75 promastigotes after 48 hrs by resazurin dye based assay

Leishmania amazonensis [5] = experiment: microbe, parasite or virus in culture; format: functional, organism-based; settings: IFLA/BR/1967/PH8, 48 h
Description: Antileishmanial activity against Leishmania amazonensis IFLA/BR/1967/PH8 promastigotes assessed as reduction in parasite viability IFLA/BR/1967/PH8 after 48 hrs by resazurin dye based assay

in vitro [6] = settings: chlorocebus sabaeus, Vero cells
Description: Cytotoxicity against African green monkey Vero cells 72 hrs by CellTiter-Glo assay

Trypanosoma cruzi [7] = experiment: microbe, parasite or virus in culture; format: functional; settings: Dm28c, 48 h
Description: Antitrypanosomal activity against Trypanosoma cruzi Dm28c epimastigotes after 48 hrs by resazurin dye based assay

Trypanosoma cruzi [8] = experiment: microbe, parasite or virus in culture; format: functional; settings: Y
Description: Antitrypanosomal activity against Trypanosoma cruzi Y epimastigotes resazurin dye based assay

Structure (SMILES): C[C@@H]1[C@H](O)[C@@H](C)/C=C/C=C/C=C/C=C/C=C/C=C/C=C/[C@H](O[C@@H]2O[C@H](C)[C@@H](O)[C@H](N)[C@@H]2O)C[C@@H]2O[C@](O)(C[C@@H](O)C[C@@H](O)[C@H](O)CC[C@@H](O)C[C@@H](O)CC(=O)O[C@H]1C)C[C@H](O)[C@H]2C(=O)O [AMPHOTERICIN B]
- IC50 (Leishmania infantum [1]): 1770 nM
- MIC (Leishmania amazonensis [2]): 8 µM (≈ 7.39 µg/mL)
- CC50 at 48 h (in vitro [3]): 1000 nM
- MIC (Leishmania infantum [4]): 8 µM (≈ 7.39 µg/mL)
- IC50 (Leishmania amazonensis [5]): 1650 nM

Structure (SMILES): O=C(Cn1ccnc1[N+](=O)[O-])NCc1ccccc1 [BENZNIDAZOLE]
- CC50 at 72 h (in vitro [6]): > 500000 nM
- MIC (Trypanosoma cruzi [7]): 32 µM (≈ 8.33 µg/mL)
- CC50 at 48 h (in vitro [3]): 138000 nM
- MIC (Trypanosoma cruzi [8]): 32 µM (≈ 8.33 µg/mL)
